Data set [1] concerns Plutella xylostella (Diamond back moth) ryanodine receptor, containing the G4946E resistance mutation. The data set is described as follows: In vitro calcium fluorescence assay (Fluo-8 NW, FDSS) in human embryonic kidney cells expressing the ryanodine receptor. It counts as cell-based. Conditions: table; EC50 (compound)/EC50 (cyantraniliprole); G4946E RyR in HEK cells. An outline of the steps:
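Fluo-8 NW-loaded cells, compounds at 10 rates, intracellular calcium fluorescence read on FDSS. EC50 from dose-response curves, normalized to in-assay cyantraniliprole as REC50 = EC50(compound)/EC50(cyantraniliprole).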

A word on the melting point: it is the temperature of the solid-liquid transition. `Cc1cc(Cl)cc(C(N)=O)c1NC(=O)c1cc(COCc2ccc(Cl)cc2)nn1-c1ncccc1Cl` [Compound P5, N-(2-carbamoyl-4-chloro-6-methyl-phenyl)-5-[(4-chlorophenyl)methoxymethyl]-2-(3-chloro-2-pyridyl)pyrazole-3-carboxamide] came in with a melting point of 174 to 176 °C. Also, the “REC50 (Compound of the invention)” value in data set [1] was determined as 0.31.
The like results for `COc1cc(C(=O)Nc2c(C)cc(Br)cc2C(N)=O)n(-c2ncccc2Cl)n1` [Compound P45, N-(4-bromo-2-carbamoyl-6-methyl-phenyl)-2-(3-chloro-2-pyridyl)-5-methoxy-pyrazole-3-carboxamide] were, in that order, 210 to 215 °C and 0.24.
In the case of `COc1cc(C(=O)Nc2c(Cl)cc(Br)cc2C(N)=O)n(-c2ncccc2Cl)n1` [Compound P47, N-(4-bromo-2-carbamoyl-6-chloro-phenyl)-2-(3-chloro-2-pyridyl)-5-methoxy-pyrazole-3-carboxamide], the melting point was 160 to 165 °C. For the same molecule, the “REC50 (Compound of the invention)” value in data set [1] was 0.61.
For `COc1cc(C(=O)Nc2c(Cl)cc(Cl)cc2C(N)=O)n(-c2ncccc2Cl)n1` [Compound P59, N-(2-carbamoyl-4,6-dichloro-phenyl)-2-(3-chloro-2-pyridyl)-5-methoxy-pyrazole-3-carboxamide], the melting point was 155 to 160 °C. In addition, in data set [1], the “REC50 (Compound of the invention)” value came out at 0.62.
Take `Cc1cc(Cl)cc(C(N)=O)c1NC(=O)c1cc(C2(C#N)CC2)nn1-c1ncccc1Cl` [Compound P72, N-(2-carbamoyl-4-chloro-6-methyl-phenyl)-2-(3-chloro-2-pyridyl)-5-(1-cyanocyclopropyl)pyrazole-3-carboxamide]: the melting point was 225 to 230 °C.
`CCc1cc(C(=O)Nc2c(C)cc(Cl)cc2C(N)=O)n(-c2ncccc2Cl)n1` [Compound P75, N-(2-carbamoyl-4-chloro-6-methyl-phenyl)-2-(3-chloro-2-pyridyl)-5-ethyl-pyrazole-3-carboxamide] came in with a melting point of 245 to 250 °C. Moreover, in data set [1], the “REC50 (Compound of the invention)” value came out at 0.69.
For the molecule `CSCc1cc(C(=O)Nc2c(C)cc(Cl)cc2C(N)=O)n(-c2ncccc2Cl)n1` [Compound P79, N-(2-carbamoyl-4-chloro-6-methyl-phenyl)-2-(3-chloro-2-pyridyl)-5-(methylsulfanylmethyl)pyrazole-3-carboxamide], the melting point lay in the range of 175 to 180 °C.

Values taken from patent US20240308988A1, “Method For Controlling Diamide Resistant Pests and Compounds Therefor” (priority 2021, published 2024).
